Read-outs that look alike come from different tables or passages of the source.
Legend:
[1] = tested on: A549 lung carcinoma cells; assay: MTT-reduction cell viability assay, dark and after LED irradiation; assay type: cell-based, Human; settings: for PI (Phototoxic index), 405 nm: IC50 dark / IC50 at 405 nm; for PI (Phototoxic index), 470 nm: IC50 dark / IC50 at 470 nm
Protocol: Human lung carcinoma A549 cell line (from ATCC, Manassas, VA, USA) was cultured in high glucose Dubecco’s Modified Eagle’s Medium (DMEM) supplemented with 5% fetal bovine serum (FBS) as well as L-glutamine and penicillin/streptomycin at 37 °C in a humidified atmosphere of 95% air and 5% CO2.
Cell metabolic activity was analyzed by an MTT-reduction assay to assess the A549 cell sensitivity to the complexes. Thus, 10^5 cells(A549)/mL were seeded in flat-bottom 96-well plates (100 µL/well) in complete medium and allowed to attach for 24 h. A stock solution of the complexes was prepared in DMSO 0.1 M. Subsequent dilutions of the different stock solutions from the complexes using DMEM were prepared. 100 µL/well were added to the cells, in concentrations ranging from 0.2 to 50 µM. each concentration was performed by quadruplicate. After 5 h of incubation with the complexes, duplicates of each concentration were irradiated with an LED lamp upon 405 and 470 nm with a light dose of 6.5 and 15.1 J/m^2, respectively, for 10 min. Before irradiation, culture medium was replaced with fresh medium in order to avoid interference with non-internalized complexes. Cells were cultured for a further 19 h. 10 µL of MTT (5 mg ml^−^1 in PBS) were added to each well and then further 2 h incubation was allowed at 37 °C. Finally, after removing the culture medium, DMSO (100 µL/well) was added to dissolve the formazan crystals. Multiskan EX 96-well multiscanner autoreader (Thermo Fisher Scientific, Waltham, MA, USA) was used to determine the optical density at 550 nm and IC50 was calculated. Each experiment was repeated at least three independent analyses.

[2] = Distribution coefficient n-octanol/water, shake-flask method; assay type: physicochemical; settings: pH = 7.4, n-octanol/phosphate buffered saline, 298 K
Protocol: The n-octanol-water coefficient of complexes 1–4 and L1 and L2 were determined using a shake-flask method. A mixture of buffered-saline distilled water (100 mL, phosphate buffer [PO4^3−] = 10 mM, [NaCl] = 0.15 M, pH 7.4) and n-octanol (100 mL) was shaken for 72 h to allow saturation of both phases. Approximately 0.5 mg of the complexes or ligands werw dissolved in 5 mL of the aqueous phase and 5 mL of the organic phase were added, mixing for 10 min. The resulting emulsion was centrifuged to separate the phases. The concentration of the compounds in each phase was determined using UV absorbance spectroscopy at 298 K. logP7.4 was defined as log{[compound(organic phase)]/[compound(aqueous phase)]}.

A549 cells [3] = assay: Cell morphology by phase contrast (inverted) microscopy; assay type: cell-based, Human; settings: A549, 10 to 20 µM, 20 h
Protocol: Alterations in cell morphology and behavior as a consequence of the exposition to ligands and complexes were analyzed using an inverted microscope (Figure 5). […] Oppositely, complexes 1–4 were able to modify cell aspect. All of them triggered cytoplasmic vesicle formation, which was more remarkable for compounds 3 and 4, containing the bzq orthometallated ligand. Moreover, even though cell division still took place in the presence of all of them, it became patently clear that they have cytotoxic properties, being more evident for complexes 1 and 2.
Figure 5 Phase contrast microscopy images of A549 cells treated with L1, L2 and 1–4 at concentrations between 10 and 20 µM for 20 h. Black arrows point to apoptotic cells. Little black triangles show examples of cells containing cytoplasmic vesicles.

A549 cells [4] = assay: Cytotoxicity assay by flow cytometry, Annexin V-DY634 / 7-AAD double staining; assay type: cell-based, Human; settings: A549, dark and irradiation at 470 nm
Protocol: Necrotic and apoptotic cell death was determined by measuring cell membrane permeabilization and phosphatidylserine exposure on cell surface in A549 cells, respectively. 10^5 cells/well were seeded in flat-bottom, 12-well plates (1 mL/well) in complete medium and left 12 h to attach to the plates. […] After 19 h, cells were trypsinized and thereafter resuspended in 50 μL of a mixture of DY634-conjugated Annexin V, Annexin-binding buffer (ABB; 140 mM NaCl, 2.5 mM CaCl2, 10 mM HEPES/NaOH pH 7.4) and 7-amino-actinomycin D (7-AAD). After incubation for further 15 min at rt in dark, cells were diluted to 300 μL with ABB. A total of 10,000 cells were acquired on a FACSCalibur^TM flow cytometer (BD Biosciences, San Jose, CA, USA) and cell death analysis was performed using Flowjo 7.6.1 (Becton Dickinson (BD), Franklin Lakes, NJ, USA), CellQuest Pro (BD Biosciences) and GraphPad Prism 8 (GraphPad Software, San Diego, CA, USA) softwares.

A549 cells [5] = assay: ROS production measurement with dihydroethidium (DHE) by flow cytometry; assay type: cell-based, Human; settings: A549, IC50 to ¼ IC50, dark and irradiation at 470 nm for 10 min
Protocol: Cells were incubated with the complex for 5 h and subsequently half of the experimental points were irradiated at 470 nm after replacing culture medium. Upon 19 h, cells were trypsinized, resuspended in 100 μL of a mixture of PBS and 2 μM of the dihydroethidium (DHE) probe, incubated at 37 °C in the dark for 15 min and diluted to 300 μL with PBS. Lastly, a total of 10,000 events were acquired on a FACSCalibur^TM flow cytometer and data were analyzed using the aforementioned softwares

A549 cells [6] = assay: Cell cycle analysis, propidium iodide flow cytometry; assay type: cell-based, Human; settings: for Cell distribution G0-G1 / Cell distribution G2-M / Cell distribution S: 5 h + 19 h
Protocol: 4 × 105. […] Thereupon, cell culture was changed, and half of the experimental points were irradiated at 470 nm. After 19 h in culture, cells were trypsinized, washed twice with PBS, fixed with cold 70% ethanol (v/v) by vortexing and stored at −20 °C for at least 24 h. After that, cells were wash with cold PBS and stained with 500 μL of a solution of propidium iodide (PI) and RNase (Immunostep, Salamanca, Spain) for 20 min at rt in the dark. Finally, a total of 10,000 cells were acquired on a FACSCalibur^TM flow cytometer and data were analyzed using the aforementioned softwares.

[7] = Homo sapiens, light or radiation study, 24 h incubation, no irradiation, read-out: IC50 (DARK)
[8] = 5 h incubation, irradiation 10 min at 405 nm (6.5 J/m^2), further 19 h, read-out: IC50(λexc 405 nm)
[9] = 5 h incubation, irradiation 10 min at 470 nm (15.1 J/m^2), further 19 h, read-out: IC50(λexc 470 nm)
[10] = 24 h incubation, no irradiation, read-out: IC50 (DARK)
[11] = A549, irradiation at 470 nm, 0.0975 μM (25% IC50)

| Molecule | IC50 [1, 7] [nM] | logP [2] | Alterations in cell morphology (A549 cells [3]) | IC50 [1, 8] [nM] | IC50 [1, 9] [nM] | IC50 [1, 10] [nM] | logP(Oct/W) [2] | PI (Phototoxic index), 405 nm [1] | PI (Phototoxic index), 470 nm [1] | other results |
| --- | --- | --- | --- | --- | --- | --- | --- | --- | --- | --- |
| c1ccc(N(c2ccccn2)c2c3ccccc3cc3ccccc23)nc1 [Complex L1] | > 50000 | 1.2 | apoptotic or necrotic cells were not detected |  |  |  |  |  |  |  |
| c1ccc(N(c2ccccn2)c2c3ccccc3nc3ccccc23)nc1 [Complex L2] | > 50000 | 0.59 | apoptotic or necrotic cells were not detected |  |  |  |  |  |  |  |
| [Ir(bzq)2(dpa-acr)]^+ [Complex 4] |  |  |  | > 5000 | 390 ± 90 | 43380 ± 140 | 1.24 |  |  | Cell death pathway (A549 cells [4]): triggers the apoptotic pathway; ROS generation (DHE) (A549 cells [5]): concentration-dependent ROS generation; Cell distribution G0-G1 (A549 cells [6]; A549, dark, 10.9 μM (25% IC50)): 72.4%; Cell distribution G2-M (A549 cells [6]; A549, dark, 10.9 μM (25% IC50)): 13.5%; Cell distribution S (A549 cells [6]; A549, dark, 10.9 μM (25% IC50)): 14.1%; Cell distribution G0-G1 (A549 cells [6]; [11]): 73.7%; Cell distribution G2-M (A549 cells [6]; [11]): 14.0%; Cell distribution S (A549 cells [6]; [11]): 12.3%; Cell cycle arrest (A549 cells [6]; A549, ¼ IC50, dark and irradiation at 470 nm): not capable of stopping the cell cycle at any of its phases |
| [Cl-].c1ccc(N(c2ccccn2)c2c3ccccc3cc3ccccc23)nc1.c1cnc2c(c1)ccc1ccc[c]([Ir+][c]3cccc4ccc5cccnc5c34)c12 [Complex 3] |  |  |  | 1350 ± 80 | 400 ± 80 | 18900 ± 120 | 1.73 | 14.0 | 47.2 |  |
| [Cl-].c1ccc(-c2cccc[c]2[Ir+][c]2ccccc2-c2ccccn2)nc1.c1ccc(N(c2ccccn2)c2c3ccccc3cc3ccccc23)nc1 [Complex 1] |  |  |  | 1160 ± 60 | 180 ± 50 | 13600 ± 80 | 0.75 | 11.7 | 75.5 |  |

— PMC8472790, “Dual Emissive Ir(III) Complexes for Photodynamic Therapy and Bioimaging” (Pharmaceutics, 2021)
